{
  "source": "patent US8361969B2",
  "about": "“Designer cyclic peptides—HIV gp120 antagonists and their applications” (priority 2011, dated 2013)",
  "key": {"HIV-1": {"tested_on": "HIV-1", "details": "read-out: IC50, inhibition of HIV-1 entry (attachment assay); compounds pre-equilibrated with the cells rather than with the virus; value represents lower boundary of actual activity", "text": "An attachment assay, described by Lackman-Smith et al., 2008, was used."}, "cells": {"tested_on": "cells", "details": "highest tested concentration 100 μM"}},
  "note": "Values joined by “and” are separate entries in the source; they are usually repeats but may differ in a detail not shown here. Equal values may be shown once. Non-standard residues stand in square brackets, D forms with d. Residues, ends and D or L forms follow the SMILES beside them. dBip = N[C@H](Cc1ccc(-c2ccccc2)cc1)C(=O)O",
  "data": [
    {"smiles": "CC[C@H](C)[C@@H]1NC(=O)[C@H](CC(=O)O)NC(=O)[C@H](Cc2ccccc2)NC(=O)[C@H](CC(=O)O)NC(=O)[C@@H](CC(=O)O)NC(=O)[C@@H](Cc2ccc(-c3ccccc3)cc2)NC(=O)[C@H]2CCCN2C(=O)CNC(=O)[C@@H](CCC(=O)O)NC(=O)[C@@H](Cc2ccc(O)cc2)NC(=O)[C@H](CCCCN)NC(=O)[C@@H](CC(C)C)NC(=O)[C@@H](CC(=O)O)NC(=O)[C@H]([C@@H](C)CC)NC1=O", "note": "[2-s4-98rp-39m-60-1_MC] (cyclo(DFDII[dD][dL]K[dY][dE]G[dP][dBip][dD]))", "values": [
      {"measurement": "IC50", "setting": "HIV-1", "value": "≤ 1640 nM and 1640 nM"},
      {"measurement": "cytotoxicity (none observed up to the highest tested concentration)", "setting": "cells", "value": "> 100", "unit": "µM"}
    ]}
  ]
}
